Converted amounts (≈) assume the structure as drawn.
Assays:
Format in all cases: cell-based
[1] = test system: Mouse abdominal cavity macrophages; assay: Suppression of macrophage (microglia model) activation caused by β-amyloid, nitrogen monoxide production (Griess); details: Aβ1-42 20 μg/ml, 72 hours, mouse interferon γ 250 U/ml and polymyxin B 10 μg/ml, NO production, absorbance at 570 nm
Description: (§1) Suppression of microglia activation caused by β-amyloid Mouse abdominal cavity macrophages were prepared as follows for use as a model for microglia. A mouse (C3H/He, N, male, 7-10 weeks old: Nippon SLC) was subjected to cervical vertebrae dislocation then sprayed with 70% ethanol, the skin of the abdomen was cut open leaving the muscularis, from 5 to 7 ml of PBS (phosphate buffered saline) were injected into the abdominal cavity using a 24 G injection needle, the back was squeezed firmly, then injection solution was drawn from the abdominal cavity using a 23 G injection needle. The cells in the collected solution were centrifugally sedimented (900 rpm, 5 minutes) and washed using PBS, then 8×10^4/well were inoculated onto a 96-well microplate in culture solution (DMEM (Sigma), 10% FBS (Gibco), 100 U/ml penicillin+100 μg/ml streptomycin (Sigma)) and cultured in a 5% CO2/95% air incubator at 37° C. The amount of nitrogen monoxide produced was taken as an indicator of macrophage activation. Specifically, the macrophages were incubated for 72 hours in the presence of 1) Aβ1-42 (20 μg/ml: Sigma), and 2) Aβ1-42 and the test compound, then 50 μl of Griess reagent (0.1% N-(1-naphthyl)ethylenediamine (Sigma), 1% sulphanilamide (Sigma), 3% H3PO4) were added to 50 μl of the supernatant, and the light absorbance at 570 nm was measured. It should be noted that this experiment was conducted in culture solution containing mouse interferon γ (250 U/ml: genzyme techne) and polymyxin B (10 μg/ml: Sigma). Also, the same operations were performed using zymosan A (140 ng/ml: Molecular Probes) or LPS (500 pg/ml: Sigma) instead of Aβ, as controls. For LPS, culture medium containing only mouse interferon γ was used.
(§2) The concentration when the absorbance in the presence of 2) Aβ and test compound was 50% of the absorbance when 1) only Aβ 1-42 was added was taken as IC50, and the activity of the compound was appraised in terms of this value.

[2] = test system: Mouse abdominal cavity macrophages; assay: Suppression of macrophage activation caused by zymosan A (control), nitrogen monoxide production (Griess); details: zymosan A 140 ng/ml instead of Aβ, 72 hours, mouse interferon γ and polymyxin B, NO production, read-out: IC50 (μg/ml) zymosan A
Description: as §1, §2

[3] = test system: Mouse abdominal cavity macrophages; assay: Suppression of macrophage activation caused by LPS (control), nitrogen monoxide production (Griess); details: LPS 500 pg/ml instead of Aβ, 72 hours, culture medium containing only mouse interferon γ, NO production, read-out: IC50 (μg/ml) LPS
Description: as §1, §2

| Compound | IC50 [1] [µg/mL] | IC50 [2] [µg/mL] | IC50 [3] [µg/mL] |
| --- | --- | --- | --- |
| c1ccc(CCN2CCc3c(C4CC4)nc4ncnn4c32)cc1 [Compound A] | 0.4 (≈ 1.31 µM) | > 5 | > 5 |
| Cc1nc2ncnn2c2c1CCN2C(C)c1ccccc1 (stereo not drawn) [Compound C] | 0.4 (≈ 1.43 µM) | > 5 | > 5 |
| Cc1nc2ncnn2c2c1CC(C)N2Cc1ccccc1F (stereo not drawn) [Compound D] | 2.3 (≈ 7.74 µM) | > 5 | > 5 |
| Cc1nc2ncnn2c2c1CC(C)N2Cc1ccccc1Cl (stereo not drawn) [Compound F] | 3.6 (≈ 11.5 µM) | > 5 | > 5 |
| Cc1nc2ncnn2c2c1ccn2Cc1ccccc1Cl [Compound G] | 3.8 (≈ 12.8 µM) | > 5 | > 5 |
| Cc1nc2ccnn2c2c1CCN2Cc1ccccc1 [Compound H] | 4 (≈ 15.1 µM) | > 5 | > 5 |
| Cc1nc2ncnn2c2c1CCN2C(C)(C)c1ccccc1 [Compound K] | 5 (≈ 17 µM) | > 5 | > 5 |

Next, values leading:

| IC50 [1] [µg/mL] | IC50 [2] [µg/mL] | IC50 [3] [µg/mL] | Compound |
| --- | --- | --- | --- |
| 0.5 (≈ 1.79 µM) | > 5 | > 5 | Cc1nc2ncnn2c2c1CCN2CCc1ccccc1 [Compound B] |
| 3.2 (≈ 11.3 µM) | > 5 | > 5 | Cc1nc2ncnn2c2c1CCN2Cc1ccccc1F [Compound E] |
| 4.3 (≈ 16.2 µM) | > 5 | > 5 | Cc1nc2ncnn2c2c1CCN2Cc1ccccc1 [Compound I] |
| 5 (≈ 16.7 µM) | > 5 | > 5 | Cc1nc2ncnn2c2c1CCN2Cc1ccccc1Cl [Compound J] |
